Consider four compounds from US9067926B2, “Fluoromethyl-5,6-dihydro-4H-[1,3]OXAZINES” (F. Hoffmann-La Roche AG, priority 2012, dated 2015).

pIC50: −log10 of the molar value.

In one data set the target is T1, BACE1 (Homo sapiens, UniProt P56817).
T1 construct: endogenous in cells; host or cells: HEK293 APP cells
Nature of the data set: Cellular Aβ-lowering assay (Abeta 40 AlphaLISA). The format is cell-based. The following applies: HEK293 APP cells, 18-20 hrs incubation, Aβ 40 in culture supernatant; read-out: BACE1 cell act. Aβ40 IC50. The protocol: Cellular Aβ-Lowering Assay:
The Abeta 40 AlphaLISA Assay can be used. The HEK293 APP cells were seeded in 96 well Microtiter plates in cell culture medium (Iscove's, plus 10% (vv) fetal bovine serum, penicillinstreptomycin) to about 80% confluency and the compounds were added at a 3× concentration in 13 volume of culture medium (final DMSO concentration was kept at 1% vv). After 18-20 hrs incubation at 37° C. and 5% CO2 in a humidified incubator, the culture supernatants were harvested for the determination of Aβ 40 concentrations using Perkin-Elmer Human Amyloid beta 1-40 (high specificity) Kit (Cat# AL275C).
Levels of Aβ 40 in the culture supernatants were calculated as percentage of maximum signal (cells treated with 1% DMSO without inhibitor). The IC50 values were calculated using the Excel XLfit software.

Data set [1] can be described thus: Detection of glutathione conjugates (GSH). The format is in vitro ADME, human. The arrangement: key: NF = in vitro no adduct formation relative to control. As to conditions: in vitro, relative to control. The text has this: Detection of Glutathione Conjugates (GSH) The assay conditions for the detection of glutathione conjugates follow the procedure described by C. M. Dieckhaus et al. in Chem. Res. Toxicol. 2005, 18, 630-63.

Data set [2] deals with T2, recombinant human cathepsin E (Homo sapiens, UniProt P14091).
T2 construct: purchased R&D Systems
T2 sequence (P14091 54-396): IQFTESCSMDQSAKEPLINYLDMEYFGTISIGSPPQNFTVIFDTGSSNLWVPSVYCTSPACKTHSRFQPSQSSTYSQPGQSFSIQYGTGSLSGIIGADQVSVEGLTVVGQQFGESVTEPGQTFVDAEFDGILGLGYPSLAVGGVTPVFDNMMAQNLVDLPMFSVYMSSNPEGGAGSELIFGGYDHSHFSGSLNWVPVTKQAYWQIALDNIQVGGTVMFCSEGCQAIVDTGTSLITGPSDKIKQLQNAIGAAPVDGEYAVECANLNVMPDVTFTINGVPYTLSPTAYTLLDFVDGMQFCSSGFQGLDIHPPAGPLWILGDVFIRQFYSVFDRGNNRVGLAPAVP
In words: Cathepsin E fluorescent substrate kinetic assay. The format is biochemical. As to conditions: pH 4.5. The source says:
Cathepsin D and Cathepsin E Fluorescent Substrate Kinetic Assays
The MR121 fluorescence assays described below are based on the fact that MR121 forms a non-fluorescent ground state complex with tryptophan. In solution this formation occurs at millimolar concentrations of tryptophan. The mechanism can be used to design a generic biochemical assay for proteases. […] In absence of protease activity, the substrates remain intact and the MR121 fluorescence is reduced by the high local Trp-concentration. If the substrates are cleaved by the enzymes the MR121 fluorescence is recovered.
The fluorescent substrate cathepsin D and cathepsin E kinetic assays were performed at room temperature in 384-well microtiter plates (black with clear flat bottom, non binding surface plates from Corning) in a final volume of 51 μl. The test compounds were serially diluted in DMSO (15 concentrations, 1/3 dilution steps) and 1 μl of diluted compounds were mixed for 10 min with 40 μl of cathepsin D (from human liver, Calbiochem) diluted in assay buffer (100 mM sodium acetate, 0.05% BSA, pH 5.5; final concentration: 200 nM) or with 40 μl of recombinant human cathepsin E (R&D Systems) diluted in assay buffer (100 mM sodium acetate, 0.05% BSA, pH 4.5; final concentration: 0.01 nM). […] The slope in the linear range of the kinetic was calculated and the IC50 of the test compounds were determined using a four parameter equation for curve fitting.

A further data set concerns the target T3, CYP3A4 (Homo sapiens, UniProt P08684).
T3 construct: 0.2 mg/ml pooled human liver microsomes; from tissue; host or cells: pooled human liver microsomes
Nature of the data set: CYP inhibition assay, CYP3A4. The following applies: pooled human liver microsomes, midazolam substrate; read-out: CYP IC50 3A4. The format is in vitro ADME. The protocol:
(§1) Inhibition of cytochromes P450 (CYPs) 2C9, 2D6 and 3A4 was assessed using human liver microsomes and CYP-selective substrate metabolism reactions. […] Quenched incubates were stored at −20° C. for at least 1 hour before centrifugation (20,000×g, 20 minutes). Supernatants were removed and diluted 1:1 with water prior to analysis using a RapidFire sample injector system and API4000 mass spectrometer. Peak areas for substrate, metabolite and stable-labelled metabolite standard were determined using MS/MS. The peak area ratios between the metabolite generated by the enzymatic reaction and the internal standard were used in subsequent calculations. The percentage of (DMSO) control activity was calculated for each incubate and IC50 values estimated by non-linear regression. Sulfaphenazole, quinidine or ketoconazole were tested in each CYP2C9, CYP2D6 or CYP3A4 inhibition experiment, respectively, to ensure assay sensitivity and reproducibility.
(In general: Liver microsomes are a subcellular fraction often used to study metabolism.)

For the next data set, the target named is T4, CYP2C9 (Homo sapiens, UniProt P11712).
T4 construct: 0.2 mg/ml pooled human liver microsomes; from tissue; host or cells: pooled human liver microsomes
T4 sequence (P11712 whole entry): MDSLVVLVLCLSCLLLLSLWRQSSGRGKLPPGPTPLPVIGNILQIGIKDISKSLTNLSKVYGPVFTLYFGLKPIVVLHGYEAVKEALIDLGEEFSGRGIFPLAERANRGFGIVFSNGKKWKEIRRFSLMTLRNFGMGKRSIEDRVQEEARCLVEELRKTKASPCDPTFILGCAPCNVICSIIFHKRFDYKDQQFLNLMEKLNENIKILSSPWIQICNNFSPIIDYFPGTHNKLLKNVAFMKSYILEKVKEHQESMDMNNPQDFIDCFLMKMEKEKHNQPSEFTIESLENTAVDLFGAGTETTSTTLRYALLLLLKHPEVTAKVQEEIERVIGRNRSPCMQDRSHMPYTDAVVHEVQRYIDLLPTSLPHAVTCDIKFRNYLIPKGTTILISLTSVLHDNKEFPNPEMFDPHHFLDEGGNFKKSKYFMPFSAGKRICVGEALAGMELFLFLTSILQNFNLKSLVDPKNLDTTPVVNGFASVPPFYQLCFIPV
In words: CYP inhibition assay, CYP2C9. The following applies: pooled human liver microsomes, diclofenac substrate; read-out: CYP IC50 2C9. The format is in vitro ADME. The protocol:
as §1

For a further data set, the target named is hERG (Homo sapiens, UniProt Q12809). Nature of the data set: hERG current measurement (automated patch clamp). The format is cell-based. The protocol: The hERG current measurement was performed at an automated patch clamp system following the procedure described in R. E. Martin et al. in Bio org.
Chain of hERG (Q12809 whole entry): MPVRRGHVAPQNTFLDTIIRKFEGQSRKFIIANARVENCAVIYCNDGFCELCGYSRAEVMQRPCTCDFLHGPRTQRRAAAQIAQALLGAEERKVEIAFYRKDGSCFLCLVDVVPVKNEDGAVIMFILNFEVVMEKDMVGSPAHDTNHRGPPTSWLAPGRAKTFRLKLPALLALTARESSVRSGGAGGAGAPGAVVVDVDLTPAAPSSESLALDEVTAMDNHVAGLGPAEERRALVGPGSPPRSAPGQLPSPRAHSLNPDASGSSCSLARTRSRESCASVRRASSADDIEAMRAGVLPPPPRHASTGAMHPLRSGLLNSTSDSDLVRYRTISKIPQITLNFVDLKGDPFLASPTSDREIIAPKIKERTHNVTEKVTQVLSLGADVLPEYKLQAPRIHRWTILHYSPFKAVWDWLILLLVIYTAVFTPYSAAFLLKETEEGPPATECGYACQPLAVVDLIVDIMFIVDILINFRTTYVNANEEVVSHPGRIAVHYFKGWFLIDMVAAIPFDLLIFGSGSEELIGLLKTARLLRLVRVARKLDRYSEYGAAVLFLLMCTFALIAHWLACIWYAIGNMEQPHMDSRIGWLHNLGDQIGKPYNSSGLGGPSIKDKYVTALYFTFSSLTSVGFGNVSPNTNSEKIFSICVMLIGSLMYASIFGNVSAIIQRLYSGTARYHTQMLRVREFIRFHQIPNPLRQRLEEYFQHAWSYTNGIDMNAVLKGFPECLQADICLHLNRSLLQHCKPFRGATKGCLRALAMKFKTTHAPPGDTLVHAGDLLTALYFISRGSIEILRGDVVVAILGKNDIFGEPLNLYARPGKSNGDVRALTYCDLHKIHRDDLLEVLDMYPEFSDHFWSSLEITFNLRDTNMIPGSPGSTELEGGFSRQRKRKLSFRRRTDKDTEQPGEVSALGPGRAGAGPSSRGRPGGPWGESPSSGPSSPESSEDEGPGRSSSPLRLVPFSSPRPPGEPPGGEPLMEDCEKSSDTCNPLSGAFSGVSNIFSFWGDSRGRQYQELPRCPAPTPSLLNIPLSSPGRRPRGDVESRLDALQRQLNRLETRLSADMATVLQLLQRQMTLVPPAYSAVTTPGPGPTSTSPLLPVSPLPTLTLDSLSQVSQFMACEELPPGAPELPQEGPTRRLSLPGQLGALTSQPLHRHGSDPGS
Background: Block of hERG is tested as a sign of cardiac risk.

T1 sequence (P56817 46-501): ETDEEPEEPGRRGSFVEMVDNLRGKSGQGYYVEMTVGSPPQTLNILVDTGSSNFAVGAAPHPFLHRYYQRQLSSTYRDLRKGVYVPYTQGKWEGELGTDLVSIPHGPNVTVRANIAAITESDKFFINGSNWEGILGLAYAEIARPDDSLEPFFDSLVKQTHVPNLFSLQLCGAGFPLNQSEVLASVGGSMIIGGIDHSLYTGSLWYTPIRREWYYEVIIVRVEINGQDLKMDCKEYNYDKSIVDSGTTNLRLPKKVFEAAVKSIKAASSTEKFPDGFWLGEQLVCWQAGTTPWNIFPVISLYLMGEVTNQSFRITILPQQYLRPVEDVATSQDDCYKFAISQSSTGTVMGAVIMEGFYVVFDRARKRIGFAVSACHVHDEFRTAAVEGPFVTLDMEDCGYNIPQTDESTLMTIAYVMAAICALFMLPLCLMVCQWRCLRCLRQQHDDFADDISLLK
T3 sequence (P08684 whole entry): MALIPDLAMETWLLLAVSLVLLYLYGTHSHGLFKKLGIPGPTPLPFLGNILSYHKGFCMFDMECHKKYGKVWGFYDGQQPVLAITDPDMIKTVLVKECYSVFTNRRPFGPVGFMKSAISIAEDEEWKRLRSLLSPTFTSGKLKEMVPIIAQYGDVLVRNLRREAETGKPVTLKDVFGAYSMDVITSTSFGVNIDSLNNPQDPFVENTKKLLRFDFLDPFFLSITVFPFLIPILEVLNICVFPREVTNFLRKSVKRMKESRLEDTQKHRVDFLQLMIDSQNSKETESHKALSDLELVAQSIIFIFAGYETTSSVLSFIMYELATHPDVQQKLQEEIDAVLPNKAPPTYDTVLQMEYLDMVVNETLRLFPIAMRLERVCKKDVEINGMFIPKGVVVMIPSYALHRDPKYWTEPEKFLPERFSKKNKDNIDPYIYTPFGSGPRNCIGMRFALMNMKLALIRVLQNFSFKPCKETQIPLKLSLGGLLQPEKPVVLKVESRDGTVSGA

For `CC#CCOc1cnc(C(=O)Nc2ccc(F)c([C@]3(C)C[C@@H](C(F)(F)F)OC(N)=N3)c2)cn1` [Example 22, N-(3-((4S,6S)-2-Amino-4-methyl-6-(trifluoromethyl)-5,6-dihydro-4H-1,3-oxazin-4-yl)-4-fluorophenyl)-5-(but-2-ynyloxy)pyrazine-2-carboxamide], the pIC50 (in general, the negative decadic logarithm of the IC50, by convention in mol/L) was 9.70 on BACE1, below 3.70 in data set [2], below 4.30 at CYP3A4 and 4.48 on CYP2C9. Besides, the “GSH human (glutathione adduct formation)” value in data set [1] is “NF”.
With `NC1=N[C@](CF)(c2cc(NC(=O)c3ccc(OCF)cn3)ccc2F)C[C@@H](C(F)(F)F)O1` [Example 35, N-(3-((4S,6S)-2-Amino-4-(fluoromethyl)-6-(trifluoromethyl)-5,6-dihydro-4H-1,3-oxazin-4-yl)-4-fluorophenyl)-5-(fluoromethoxy)picolinamide], the pIC50 is 7.72 on BACE1, below 3.70 in data set [2], below 4.30 on CYP3A4 and 4.48 at CYP2C9. For the same compound, the “GSH human (glutathione adduct formation)” value in data set [1] is recorded as “NF”. For the same compound, the “hERG Inhibition @ 10 μM” value on hERG is recorded as 26.
As for `C[C@@]1(c2cc(NC(=O)c3ccc(Cl)cn3)ccc2F)C[C@@H](C(F)(F)F)OC(N)=N1` [Example 2, N-(3-((4S,6S)-2-amino-4-methyl-6-(trifluoromethyl)-5,6-dihydro-4H-1,3-oxazin-4-yl)-4-fluorophenyl)-5-chloropicolinamide], the pIC50 at BACE1 was 8.30; in data set [2], below 3.70; on CYP3A4, below 4.30; on CYP2C9, below 4.30. For the same compound, the “GSH human (glutathione adduct formation)” value in data set [1] was “NF”. At hERG, the “hERG Inhibition @ 10 μM” value is given as 84.
Consider `C[C@@]1(c2cc(NC(=O)c3ccc(OCF)cn3)ccc2F)C[C@@H](C(F)(F)F)OC(N)=N1` [Example 11, N-(3-((4S,6S)-2-Amino-4-methyl-6-(trifluoromethyl)-5,6-dihydro-4H-1,3-oxazin-4-yl)-4-fluorophenyl)-5-(fluoromethoxy)picolinamide], for which the pIC50 on BACE1 is 8.40; in data set [2] it was below 3.70; at CYP3A4, below 4.30; on CYP2C9, below 4.30. Further, in data set [1], the “GSH human (glutathione adduct formation)” value is given as “NF”. The “hERG Inhibition @ 10 μM” value on hERG stood at 26.
